Laboratory results: ChEMBL document CHEMBL1201862, “PubChem BioAssay data set” (2004)
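48-hour exposure; five concentrations; linearly interpolated endpoints. GI50: concentration for 50% inhibition of growth.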 The source made the active and inactive calls. Cut-off read from the data, not from the text of the source: active = GI50 up to about 1.1 µM and inactive = higher.

What was measured:
Assay in all cases: NCI-60 cell line screen, 48 h
COLO 205 = test system: COLO 205
ACHN = test system: ACHN
XF498 = test system: XF498
OVCAR-8 = test system: OVCAR-8
SN12C = test system: SN12C
SR = test system: SR
M19-MEL = test system: M19-MEL
A549 = test system: A549
M14 = test system: M14
SK-OV-3 = test system: SK-OV-3
SNB-19 = test system: SNB-19
TK-10 = test system: TK-10
DMS-273 = test system: DMS-273
HOP-62 = test system: HOP-62
CAKI-1 = test system: CAKI-1
UACC-257 = test system: UACC-257
LOX IMVI = test system: LOX IMVI
HCT-116 = test system: HCT-116
K562 = test system: K562
HOP-18 = test system: HOP-18
IGROV-1 = test system: IGROV-1
EKVX = test system: EKVX
SF-539 = test system: SF-539
HT-29 = test system: HT-29
SNB-75 = test system: SNB-75
RXF 631 = test system: RXF 631
KM12 = test system: KM12
786-0 = test system: 786-0
LXFL 529 = test system: LXFL 529
A498 = test system: A498
MOLT-4 = test system: MOLT-4
DLD-1 = test system: DLD-1
UACC-62 = test system: UACC-62
U-251 = test system: U-251
HCC 2998 = test system: HCC 2998
RPMI-8226 = test system: RPMI-8226
OVCAR-3 = test system: OVCAR-3
SNB-78 = test system: SNB-78
SK-MEL-28 = test system: SK-MEL-28
Malme-3M = test system: Malme-3M
SW-620 = test system: SW-620
NCI-H522 = test system: NCI-H522
NCI-H460 = test system: NCI-H460
OVCAR-4 = test system: OVCAR-4
HOP-92 = test system: HOP-92
NCI-H23 = test system: NCI-H23
HL-60 = test system: HL-60
SF-268 = test system: SF-268
RXF 393 = test system: RXF 393
SK-MEL-5 = test system: SK-MEL-5
UO-31 = test system: UO-31
DMS-114 = test system: DMS-114
NCI-H226 = test system: NCI-H226
SF-295 = test system: SF-295
OVCAR-5 = test system: OVCAR-5
KM-20L2 = test system: KM-20L2
SK-MEL-2 = test system: SK-MEL-2
HCT-15 = test system: HCT-15
CCRF-CEM = test system: CCRF-CEM

O=S(=O)(O)CS(=O)(=O)OCCCl
GI50 (COLO 205): > 100 µM (inactive) | GI50 (ACHN): > 100 µM (inactive) | GI50 (XF498): > 100 µM (inactive) | GI50 (OVCAR-8): > 100 µM (inactive) | GI50 (SN12C): > 100 µM (inactive) | GI50 (SR): > 100 µM (inactive) | GI50 (M19-MEL): > 100 µM (inactive) | GI50 (A549): > 100 µM (inactive) | GI50 (M14): > 100 µM (inactive) | GI50 (SK-OV-3): > 100 µM (inactive) | GI50 (SNB-19): > 100 µM (inactive) | GI50 (TK-10): > 100 µM (inactive) | GI50 (DMS-273): > 100 µM (inactive) | GI50 (HOP-62): > 100 µM (inactive) | GI50 (CAKI-1): > 100 µM (inactive) | GI50 (UACC-257): > 100 µM (inactive) | GI50 (LOX IMVI): > 100 µM (inactive) | GI50 (HCT-116): > 100 µM (inactive) | GI50 (K562): > 100 µM (inactive) | GI50 (HOP-18): 81.8 µM (inactive) | GI50 (IGROV-1): > 100 µM (inactive) | GI50 (EKVX): > 100 µM (inactive) | GI50 (SF-539): > 100 µM (inactive) | GI50 (HT-29): > 100 µM (inactive) | GI50 (SNB-75): > 100 µM (inactive) | GI50 (RXF 631): > 100 µM (inactive) | GI50 (KM12): > 100 µM (inactive) | GI50 (786-0): > 100 µM (inactive) | GI50 (LXFL 529): > 100 µM (inactive) | GI50 (A498): > 100 µM (inactive) | GI50 (MOLT-4): > 100 µM (inactive) | GI50 (DLD-1): > 100 µM (inactive) | GI50 (UACC-62): > 100 µM (inactive) | GI50 (U-251): > 100 µM (inactive) | GI50 (HCC 2998): > 100 µM (inactive) | GI50 (RPMI-8226): > 100 µM (inactive) | GI50 (OVCAR-3): > 100 µM (inactive) | GI50 (SNB-78): > 100 µM (inactive) | GI50 (SK-MEL-28): > 100 µM (inactive) | GI50 (Malme-3M): > 100 µM (inactive) | GI50 (SW-620): > 100 µM (inactive) | GI50 (NCI-H522): > 100 µM (inactive) | GI50 (NCI-H460): > 100 µM (inactive) | GI50 (OVCAR-4): > 100 µM (inactive) | GI50 (HOP-92): > 100 µM (inactive) | GI50 (NCI-H23): > 100 µM (inactive) | GI50 (HL-60): > 100 µM (inactive) | GI50 (SF-268): > 100 µM (inactive) | GI50 (RXF 393): > 100 µM (inactive) | GI50 (SK-MEL-5): > 100 µM (inactive) | GI50 (UO-31): > 100 µM (inactive) | GI50 (DMS-114): > 100 µM (inactive) | GI50 (NCI-H226): > 100 µM (inactive) | GI50 (SF-295): > 100 µM (inactive) | GI50 (OVCAR-5): > 100 µM (inactive) | GI50 (KM-20L2): > 100 µM (inactive)

CC(C)(C)[Si](C)(C)OCCCC#CCO
GI50 (COLO 205): > 100 µM (inactive) | GI50 (ACHN): > 100 µM (inactive) | GI50 (XF498): > 100 µM (inactive) | GI50 (OVCAR-8): > 100 µM (inactive) | GI50 (SN12C): > 100 µM (inactive) | GI50 (A549): > 100 µM (inactive) | GI50 (M14): > 100 µM (inactive) | GI50 (SK-OV-3): > 100 µM (inactive) | GI50 (SNB-19): > 100 µM (inactive) | GI50 (TK-10): > 100 µM (inactive) | GI50 (DMS-273): > 100 µM (inactive) | GI50 (CAKI-1): > 100 µM (inactive) | GI50 (UACC-257): > 100 µM (inactive) | GI50 (LOX IMVI): > 100 µM (inactive) | GI50 (K562): 98.2 µM (inactive) | GI50 (HOP-18): < 0.01 µM (active) | GI50 (IGROV-1): > 100 µM (inactive) | GI50 (EKVX): > 100 µM (inactive) | GI50 (SF-539): > 100 µM (inactive) | GI50 (HT-29): > 100 µM (inactive) | GI50 (SNB-75): > 100 µM (inactive) | GI50 (RXF 631): > 100 µM (inactive) | GI50 (KM12): > 100 µM (inactive) | GI50 (LXFL 529): > 100 µM (inactive) | GI50 (A498): > 100 µM (inactive) | GI50 (MOLT-4): 92.7 µM (inactive) | GI50 (DLD-1): > 100 µM (inactive) | GI50 (UACC-62): > 100 µM (inactive) | GI50 (U-251): > 100 µM (inactive) | GI50 (HCC 2998): > 100 µM (inactive) | GI50 (RPMI-8226): 64.9 µM (inactive) | GI50 (SNB-78): > 100 µM (inactive) | GI50 (SK-MEL-28): > 100 µM (inactive) | GI50 (Malme-3M): > 100 µM (inactive) | GI50 (SW-620): > 100 µM (inactive) | GI50 (NCI-H522): > 100 µM (inactive) | GI50 (NCI-H460): > 100 µM (inactive) | GI50 (OVCAR-4): > 100 µM (inactive) | GI50 (NCI-H23): > 100 µM (inactive) | GI50 (HL-60): 25.8 µM (inactive) | GI50 (SF-268): > 100 µM (inactive) | GI50 (RXF 393): > 100 µM (inactive) | GI50 (SK-MEL-5): > 100 µM (inactive) | GI50 (UO-31): > 100 µM (inactive) | GI50 (SK-MEL-2): > 100 µM (inactive) | GI50 (DMS-114): > 100 µM (inactive) | GI50 (HCT-15): > 100 µM | GI50 (SF-295): > 100 µM (inactive) | GI50 (OVCAR-5): > 100 µM (inactive) | GI50 (CCRF-CEM): 38.7 µM (inactive) | GI50 (KM-20L2): > 100 µM (inactive)

CC(=O)Oc1c(C)n(CCCl)ccc1=O
GI50 (COLO 205): > 100 µM (inactive) | GI50 (ACHN): 69.3 µM (inactive) | GI50 (XF498): > 100 µM (inactive) | GI50 (OVCAR-8): > 100 µM (inactive) | GI50 (SN12C): > 100 µM (inactive) | GI50 (SR): > 100 µM (inactive) | GI50 (M19-MEL): > 100 µM (inactive) | GI50 (A549): > 100 µM (inactive) | GI50 (M14): > 100 µM (inactive) | GI50 (SK-OV-3): > 100 µM (inactive) | GI50 (SNB-19): > 100 µM (inactive) | GI50 (TK-10): 22.5 µM (inactive) | GI50 (DMS-273): > 100 µM (inactive) | GI50 (HOP-62): > 100 µM (inactive) | GI50 (CAKI-1): > 100 µM (inactive) | GI50 (UACC-257): > 100 µM (inactive) | GI50 (LOX IMVI): > 100 µM (inactive) | GI50 (HCT-116): > 100 µM (inactive) | GI50 (K562): > 100 µM (inactive) | GI50 (HOP-18): > 100 µM (inactive) | GI50 (EKVX): > 100 µM (inactive) | GI50 (HT-29): > 100 µM (inactive) | GI50 (SNB-75): > 100 µM (inactive) | GI50 (RXF 631): 59.4 µM (inactive) | GI50 (KM12): > 100 µM (inactive) | GI50 (786-0): > 100 µM (inactive) | GI50 (LXFL 529): > 100 µM (inactive) | GI50 (A498): > 100 µM (inactive) | GI50 (MOLT-4): > 100 µM (inactive) | GI50 (DLD-1): > 100 µM (inactive) | GI50 (UACC-62): > 100 µM (inactive) | GI50 (U-251): > 100 µM (inactive) | GI50 (RPMI-8226): > 100 µM (inactive) | GI50 (OVCAR-3): > 100 µM (inactive) | GI50 (SNB-78): > 100 µM (inactive) | GI50 (SK-MEL-28): > 100 µM (inactive) | GI50 (Malme-3M): > 100 µM (inactive) | GI50 (NCI-H522): > 100 µM (inactive) | GI50 (NCI-H460): 44.6 µM (inactive) | GI50 (OVCAR-4): > 100 µM (inactive) | GI50 (HL-60): > 100 µM (inactive) | GI50 (SF-268): > 100 µM (inactive) | GI50 (RXF 393): > 100 µM (inactive) | GI50 (SK-MEL-5): > 100 µM (inactive) | GI50 (UO-31): 59.2 µM (inactive) | GI50 (SK-MEL-2): > 100 µM (inactive) | GI50 (DMS-114): > 100 µM (inactive) | GI50 (NCI-H226): > 100 µM (inactive) | GI50 (HCT-15): 34.8 µM | GI50 (SF-295): > 100 µM (inactive) | GI50 (OVCAR-5): 56.6 µM (inactive) | GI50 (CCRF-CEM): 84.3 µM (inactive) | GI50 (KM-20L2): 57.7 µM (inactive)
